# Measurements reported in US9238021B2, “Method of producing a cationic liposomal preparation comprising a lipophilic compound” (MEDIGENE AG, priority 2002, dated 2016).
# Columns and labels:
# [1] = human plasma; cited from earlier work
# [2] = murine plasma; cited from earlier work
# [3] = Solubility of docetaxel in trehalose or water; type: physicochemical
SMILES,half life [1],in vitro half life [2],solubility [3]
C/C1=C/C[C@@H](/C(C)=C/c2csc(C)n2)OC(=O)C[C@H](O)C(C)(C)C(=O)[C@H](C)[C@@H](O)[C@@H](C)CCC1 [desoxy-epothilone B],around 3 h,~20 min,–
CC(=O)O[C@@]12CO[C@@H]1C[C@H](O)[C@@]1(C)C(=O)[C@H](O)C3=C(C)[C@@H](OC(=O)[C@H](O)[C@@H](NC(=O)OC(C)(C)C)c4ccccc4)C[C@@](O)([C@@H](OC(=O)c4ccccc4)[C@H]21)C3(C)C [docetaxel],–,–,~20 µM
